Calls of active or inactive are those of the source. Rule as the data show it, for most assays here: actives have a measured EC50 and inactives only a lower limit.
Experiments:
[1] = molecular target: T1, Heat shock factor protein 1 (Mus musculus, UniProt P38532); test: inhibition of MG132-induced HSE-luciferase signal, confirmation, cell-based, NIH3T3, luminescence, dose retest (AID 2382); type: functional;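 also: NIH3T3 fibroblasts with HSF1-driven luciferase reporter stressed by proteasome inhibitor MG132; luminescence from HSF1-driven luciferase expression after 8 hours of MG132 stress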
T1 sequence (P38532 whole entry): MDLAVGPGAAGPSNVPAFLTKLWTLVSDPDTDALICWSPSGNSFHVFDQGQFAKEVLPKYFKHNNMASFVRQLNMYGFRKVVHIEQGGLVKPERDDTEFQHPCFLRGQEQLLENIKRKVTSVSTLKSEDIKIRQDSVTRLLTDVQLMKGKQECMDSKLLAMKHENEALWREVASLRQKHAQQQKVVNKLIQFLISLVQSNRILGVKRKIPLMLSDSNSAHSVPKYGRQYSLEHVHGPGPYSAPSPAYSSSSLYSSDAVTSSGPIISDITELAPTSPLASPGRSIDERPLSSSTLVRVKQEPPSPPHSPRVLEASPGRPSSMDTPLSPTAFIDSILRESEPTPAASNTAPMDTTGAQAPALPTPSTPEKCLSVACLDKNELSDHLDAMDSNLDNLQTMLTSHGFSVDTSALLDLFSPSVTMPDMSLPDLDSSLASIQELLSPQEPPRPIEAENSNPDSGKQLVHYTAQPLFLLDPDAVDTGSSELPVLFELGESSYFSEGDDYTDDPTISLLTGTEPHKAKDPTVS

[2] = system: BJ; test: cytotoxicity toward BJ-TERT fibroblasts, dose response, cell-based, RAS-independent, luminescence (AID 1933); type: functional; conditions: Homo sapiens
[3] = system: BJ; test: cytotoxicity toward BJ-TERT-LT-ST fibroblasts, dose response, cell-based, RAS-independent, luminescence (AID 1935); type: functional; conditions: Homo sapiens;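 also: BJ fibroblasts immortalized with TERT plus LT and ST oncogenes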
[4] = cytotoxicity toward DRD oncogenic fibroblasts, dose response, cell-based, non-viral oncogenic, luminescence (AID 1934); type: functional; conditions: Homo sapiens
[5] = system: BJ; test: cells; type: functional, cell-based; conditions: Homo sapiens
[6] = molecular target: Nonstructural protein 1 (Influenza A virus, UniProt Q194T2); type: functional, Influenza A virus (A/California/07/2009(H1N1))
[7] = molecular target: T2, Carboxy-terminal domain RNA polymerase II polypeptide A small phosphatase 1 (Homo sapiens, UniProt Q9GZU7); test: inhibitors of CTDSP1, concentration-response testing, biochemical assay, absorbance-based, actives from ultra-high-throughput screening (AID 540297); type: functional
T2 sequence (Q9GZU7 whole entry): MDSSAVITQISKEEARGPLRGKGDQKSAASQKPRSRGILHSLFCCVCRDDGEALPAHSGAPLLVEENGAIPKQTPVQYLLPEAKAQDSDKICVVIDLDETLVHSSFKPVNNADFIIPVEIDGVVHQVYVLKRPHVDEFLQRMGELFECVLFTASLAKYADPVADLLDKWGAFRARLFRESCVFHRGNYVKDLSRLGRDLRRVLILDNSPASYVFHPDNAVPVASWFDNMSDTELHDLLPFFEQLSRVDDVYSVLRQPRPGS

[8] = molecular target: T3, Corticotropin-releasing factor receptor 2/Corticotropin-releasing factor-binding protein (Homo sapiens, UniProt P24387+Q13324); test: activators of CRF receptor 2 with binding protein – uHTS hits, confirmation (AID 602473); type: functional; conditions: read-out: EC50_Mean
T3 sequence (Q13324 whole entry): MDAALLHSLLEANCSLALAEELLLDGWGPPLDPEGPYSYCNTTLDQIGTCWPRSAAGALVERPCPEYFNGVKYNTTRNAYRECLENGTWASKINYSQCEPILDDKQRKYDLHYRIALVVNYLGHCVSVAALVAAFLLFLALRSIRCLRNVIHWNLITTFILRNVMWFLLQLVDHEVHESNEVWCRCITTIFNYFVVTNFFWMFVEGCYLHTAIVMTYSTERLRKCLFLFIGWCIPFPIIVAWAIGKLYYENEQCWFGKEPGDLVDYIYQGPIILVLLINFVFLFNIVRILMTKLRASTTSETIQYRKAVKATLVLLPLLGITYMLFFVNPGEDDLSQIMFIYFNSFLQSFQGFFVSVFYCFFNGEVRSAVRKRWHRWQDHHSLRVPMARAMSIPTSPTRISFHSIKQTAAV
T3 sequence (P24387 whole entry): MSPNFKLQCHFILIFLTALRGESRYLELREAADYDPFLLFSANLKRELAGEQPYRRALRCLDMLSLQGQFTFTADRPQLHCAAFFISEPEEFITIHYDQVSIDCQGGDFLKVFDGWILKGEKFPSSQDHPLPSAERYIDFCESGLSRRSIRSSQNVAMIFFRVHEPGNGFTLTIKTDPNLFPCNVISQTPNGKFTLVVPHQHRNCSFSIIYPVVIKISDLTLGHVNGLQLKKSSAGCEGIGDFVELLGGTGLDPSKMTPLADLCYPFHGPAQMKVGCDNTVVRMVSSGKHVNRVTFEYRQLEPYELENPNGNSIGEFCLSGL

[9] = control 3'UTR Renilla luciferase suppression, dose response, counter-screen for Shn3 inhibitor project, cell-based, Clone20-Shn3RL, cherry-picked (AID 624133); type: functional
[10] = Shn3 3'UTR reporter inhibitors, dose response, cell-based, Clone20 osteoblasts, firefly luciferase, cherry-picked (AID 624132); type: functional;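 also: firefly luciferase luminescence from reporter carrying the Shn3 3'UTR in osteoblasts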
[11] = molecular target: T4, Rac GTPase-activating protein 1 (Homo sapiens, UniProt Q9H0H5); test: MgcRacGAP GTPase-activating activity inhibitors, confirmation, biochemical, ADP Hunter fluorescence, primary and confirmatory (AID 624330); type: functional
T4 sequence (Q9H0H5 whole entry): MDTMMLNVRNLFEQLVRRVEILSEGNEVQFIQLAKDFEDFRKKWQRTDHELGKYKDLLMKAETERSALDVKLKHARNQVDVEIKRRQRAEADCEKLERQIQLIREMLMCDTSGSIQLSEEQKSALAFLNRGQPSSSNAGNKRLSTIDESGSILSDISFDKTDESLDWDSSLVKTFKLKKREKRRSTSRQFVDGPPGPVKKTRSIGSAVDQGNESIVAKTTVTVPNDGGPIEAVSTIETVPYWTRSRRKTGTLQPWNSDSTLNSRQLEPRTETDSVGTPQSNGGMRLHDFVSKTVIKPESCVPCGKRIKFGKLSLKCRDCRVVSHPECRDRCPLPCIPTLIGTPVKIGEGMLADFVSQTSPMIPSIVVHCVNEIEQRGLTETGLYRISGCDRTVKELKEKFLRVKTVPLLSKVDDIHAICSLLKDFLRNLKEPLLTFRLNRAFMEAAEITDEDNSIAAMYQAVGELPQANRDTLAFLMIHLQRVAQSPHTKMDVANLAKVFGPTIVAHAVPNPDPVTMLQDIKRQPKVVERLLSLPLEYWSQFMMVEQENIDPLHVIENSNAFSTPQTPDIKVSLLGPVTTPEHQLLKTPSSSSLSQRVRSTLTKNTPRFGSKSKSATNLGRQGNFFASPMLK

[12] = molecular target: Large T antigen (Simian virus 40, UniProt P03070); type: functional, Betapolyomavirus macacae;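 also: Confirmatory-stage PubChem screen for compounds that inhibit SV40 T antigen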
[13] = cytotoxicity toward NIH3T3 fibroblasts, dose response, counter-screen, cell-based, ATP luminescence, mouse fibroblasts (AID 2010); type: functional;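 also: cells exposed to compound for about 90 hours before reading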
[14] = inhibitors of intracellular T. cruzi replication, confirmation, NIH3T3 host cells, beta-gal luminescence (AID 2044); type: functional, cell-based;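 also: intracellular parasites grown in NIH/3T3 mouse fibroblasts as host cells; luminescent beta-galactosidase reporter signal from transgenic T. cruzi replicating inside host cells; inhibitors lower the luminescence signal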
[15] = HepG2 cell cytotoxicity, dose response, cytotoxicity control for Shn3 inhibitor project, CellTiter-Glo, cherry-picked (AID 624134); type: functional, cell-based

Chain of Nonstructural protein 1 (Q194T2 whole entry, the tested form may be a part): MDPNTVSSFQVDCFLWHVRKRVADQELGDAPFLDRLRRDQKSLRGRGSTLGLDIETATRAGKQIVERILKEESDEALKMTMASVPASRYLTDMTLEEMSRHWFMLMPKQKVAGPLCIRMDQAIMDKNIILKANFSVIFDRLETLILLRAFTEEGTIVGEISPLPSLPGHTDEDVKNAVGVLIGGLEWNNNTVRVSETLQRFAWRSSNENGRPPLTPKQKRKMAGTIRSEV
Chain of Large T antigen (P03070 whole entry): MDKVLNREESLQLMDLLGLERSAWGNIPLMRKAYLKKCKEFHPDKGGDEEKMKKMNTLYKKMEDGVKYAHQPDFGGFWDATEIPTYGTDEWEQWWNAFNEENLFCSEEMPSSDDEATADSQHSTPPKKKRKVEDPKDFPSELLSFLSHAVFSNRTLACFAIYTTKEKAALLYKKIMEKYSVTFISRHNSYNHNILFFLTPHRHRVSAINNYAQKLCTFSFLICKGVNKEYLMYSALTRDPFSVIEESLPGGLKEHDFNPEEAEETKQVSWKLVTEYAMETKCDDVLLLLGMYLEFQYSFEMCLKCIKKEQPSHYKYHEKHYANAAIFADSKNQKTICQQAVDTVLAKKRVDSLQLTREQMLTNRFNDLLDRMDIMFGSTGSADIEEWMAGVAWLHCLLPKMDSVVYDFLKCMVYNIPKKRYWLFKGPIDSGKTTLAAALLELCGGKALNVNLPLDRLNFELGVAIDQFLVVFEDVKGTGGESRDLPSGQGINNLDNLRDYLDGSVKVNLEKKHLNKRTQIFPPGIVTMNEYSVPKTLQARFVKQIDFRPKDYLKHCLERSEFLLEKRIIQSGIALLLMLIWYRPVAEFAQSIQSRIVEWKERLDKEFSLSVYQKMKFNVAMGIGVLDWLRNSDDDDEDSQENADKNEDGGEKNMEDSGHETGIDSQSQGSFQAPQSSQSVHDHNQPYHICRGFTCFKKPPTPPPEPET

SMILES: COc1ccc(N2C(=O)c3ccccc3NC2c2ccc(OC)c(Cn3cc([N+](=O)[O-])cn3)c2)cc1 (configuration not stated)
- EC50 [1]: > 195 µM (not active)

SMILES: CCOc1ccc(CC(=O)N2CCC3(CC2)NCCc2[nH]cnc23)cc1
- EC50 [1]: > 195 µM (not active)

SMILES: CC1=CC(C)(C)N2C(=O)C(=O)c3cc(OC(=O)c4ccco4)cc1c32
- EC50 [2]: > 150 µM (not active)
- EC50 [3]: 11.3 µM (inconclusive)
- EC50 [4]: 11.2 µM (inconclusive)
- EC50 [5]: 11.6 µM (active)

SMILES: Cc1cc(C)cc(-n2c(C)cc(C(=S)N3CCOCC3)c2C)c1
- IC50 [6]: 95.6 µM (active)

SMILES: Cc1ccc(S(=O)(=O)N2CCCCC2)cc1C(=O)Nc1cccnc1
- IC50 [7]: 9.14 µM (active)

SMILES: COc1ccc(S(=O)(=O)N2CCCCCC2)cc1C(=O)OCC(=O)NC(C)(C)C
- EC50 [1]: > 195 µM (not active)

SMILES: O=C(c1ccccc1)c1ccc(-n2ccnc2)c([N+](=O)[O-])c1
- EC50 [2]: > 150 µM (not active)
- EC50 [3]: > 150 µM (inconclusive)
- EC50 [4]: > 150 µM (not active)
- EC50 [5]: > 150 µM (not active)

SMILES: COc1cc(OC)cc(N(C(=O)CNC(=O)c2cccs2)C(C(=O)NCC2CCCO2)c2ccc(OC)c(OC)c2)c1 (configuration not stated)
- EC50 [8]: > 53 µM (inactive)

SMILES: Cn1nnnc1SCC1=C(C(=O)O)N2C(=O)C(NC(=O)C3CC3c3ccccc3)C2SC1 (configuration not stated)
- IC50 [7]: 11.8 µM (active)

SMILES: CN(C)S(=O)(=O)c1cccc(/N=c2\scc(-c3ccc4c(c3)NC(=O)CO4)n2CC2CCCO2)c1 (configuration not stated)
- AC50 [9]: 22.5 µM (active)
- AC50 [10]: 14 µM (active)

SMILES: COc1cc2c(cc1N=C(S)Nc1ccccc1C)oc1ccccc12
- IC50 [11]: 83.9 µM (active)
- IC50 [12]: 56.4 µM (active)

SMILES: CCOc1ccc(NC(=O)CN2C(=O)NC(C)(c3ccc(OC(F)F)cc3)C2=O)cc1 (configuration not stated)
- EC50 [8]: 13.2 µM (active)

SMILES: COc1ccc2[nH]c(C)c(CCN(Cc3cccs3)C(S)=Nc3ccccc3)c2c1
- EC50 [13]: > 60 µM (not active)
- IC50 [6]: > 100 µM (active)
- EC50 [14]: 2.82 µM (active)

SMILES: Cc1ccc(OCC(=O)NCCNC(=O)c2ccco2)cc1C
- EC50 [1]: > 195 µM (not active)

SMILES: C=C[C@]1(C)C=C2C(=O)[C@@]3(O)OC(=O)[C@@]4(CCCC(C)(C)[C@H]34)[C@@]2(O)CC1 [SPHAEROPSIDIN A]
- AC50 [15]: 12 µM (active)
- AC50 [9]: 4.85 µM (active)
- AC50 [10]: 4.98 µM (active)

Source: ChEMBL document CHEMBL1201862, “PubChem BioAssay data set” (2004)
